These results are taken from ChEMBL document CHEMBL4177585, “Discovery of berberine based derivatives as anti-influenza agent through blocking of neuraminidase” (Bioorg Med Chem, 2017).

In brackets after ≈: the same amount, converted by molar mass. Activity calls are given as the source filed them. The calls are words filed in the database; no cut-off is given here. A value given as a limit tells only on which side of the number the result lay.

Neuraminidase (Influenza A virus (A/Puerto Rico/8/1934(H1N1))), sequence (P03468 whole entry): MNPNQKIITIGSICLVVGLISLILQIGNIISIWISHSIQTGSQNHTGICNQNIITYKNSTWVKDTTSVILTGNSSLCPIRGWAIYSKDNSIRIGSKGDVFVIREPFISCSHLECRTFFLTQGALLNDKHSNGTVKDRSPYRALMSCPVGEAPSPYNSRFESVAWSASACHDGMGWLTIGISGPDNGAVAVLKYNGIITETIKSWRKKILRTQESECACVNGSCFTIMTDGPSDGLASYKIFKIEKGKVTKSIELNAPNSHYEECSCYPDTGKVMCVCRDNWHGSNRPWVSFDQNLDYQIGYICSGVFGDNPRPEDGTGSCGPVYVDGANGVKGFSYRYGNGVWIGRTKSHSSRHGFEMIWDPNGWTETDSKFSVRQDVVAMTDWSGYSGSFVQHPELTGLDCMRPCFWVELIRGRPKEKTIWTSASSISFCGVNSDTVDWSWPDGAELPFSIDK

The first series relates to Influenza A virus. Briefly: Antiviral activity against Influenza A virus (A/Victoria/3/1975(H3N2)) infected in MDCK cells assessed as reduction in virus-induced cytopathogenicity incubated for 48 hrs by SRB assay. The class given is functional, organism-based.
Conditions: not given
As to `COc1cc(CN2CCN(c3ccccc3Cl)CC2)c2cc3[n+](cc2c1O)CCc1cc2c(cc1-3)OCO2.[Cl-]`, the concentration for half-maximal inhibition (IC50) worked out at 2.98 µg/mL.

On to `CCOC(=O)C1=C[C@@H](OC(CC)CC)[C@H](NC(C)=O)[C@@H](N)C1` [OSELTAMIVIR], for which the IC50 amounted to 12.1 µg/mL (≈ 38.9 µM).

In the case of `COc1cc(CN2CCN(c3ccc(C)cc3)CC2)c2cc3[n+](cc2c1O)CCc1cc2c(cc1-3)OCO2.[Cl-]`, the concentration for half-maximal inhibition (IC50) was 2.13 µg/mL.

The subject of the next series is Influenza A virus. Nature of the series: Antiviral activity against Influenza A virus (A/Puerto Rico/8/1934(H1N1)) infected in MDCK cells assessed as reduction in virus-induced cytopathogenicity incubated for 48 hrs by SRB assay. Format: functional, organism-based.
Conditions: not given
As to `COc1cc(CN2CCN(c3ccccc3Cl)CC2)c2cc3[n+](cc2c1O)CCc1cc2c(cc1-3)OCO2.[Cl-]`, the half-inhibitory concentration (IC50) amounted to 1.63 µg/mL.

With `CCOC(=O)C1=C[C@@H](OC(CC)CC)[C@H](NC(C)=O)[C@@H](N)C1` [OSELTAMIVIR], the half-maximal inhibitory concentration (IC50) stood at 3.19 µg/mL (≈ 10.2 µM).

Turning to `COc1cc(CN2CCN(c3ccc(C)cc3)CC2)c2cc3[n+](cc2c1O)CCc1cc2c(cc1-3)OCO2.[Cl-]`, the IC50 turned out to be 1.48 µg/mL.

Test system in another series: not listed separately
Briefly: Cytotoxicity against MDCK cells incubated for 48 hrs assessed as reduction in cell viability by SRB assay. The class given is cell-based, Canis lupus familiaris. The settings on record: dog.
For `COc1cc(CN2CCN(c3ccccc3Cl)CC2)c2cc3[n+](cc2c1O)CCc1cc2c(cc1-3)OCO2.[Cl-]`, the 50% cytotoxic concentration (CC50) at 48 h was found to be 401 µg/mL.

In the case of `COc1cc(CN2CCN(c3ccc(C)cc3)CC2)c2cc3[n+](cc2c1O)CCc1cc2c(cc1-3)OCO2.[Cl-]`, the CC50 at 48 h was 68.5 µg/mL.

The subject of another series is Influenza A virus. Nature of the series: Antiviral activity against Influenza A virus (A/Puerto Rico/8/1934(H1N1)) infected in MDCK cells assessed as reduction in virus-induced cytopathogenicity treated 7 hrs after virus infection and measured after 48 hrs by SRB assay. The class given is functional, organism-based.
Conditions: not given
Regarding `CCOC(=O)C1=C[C@@H](OC(CC)CC)[C@H](NC(C)=O)[C@@H](N)C1` [OSELTAMIVIR], the IC50 stood at 12.8 µg/mL (≈ 40.8 µM).

Another series relates to Influenza A virus. Nature of the series: Antiviral activity against Influenza A virus (A/Puerto Rico/8/1934(H1N1)) infected in MDCK cells assessed as reduction in virus-induced cytopathogenicity treated 2 hrs before virus infection and measured after 48 hrs by SRB assay. The class given is functional, organism-based.
Conditions: not given
For the compound `CCOC(=O)C1=C[C@@H](OC(CC)CC)[C@H](NC(C)=O)[C@@H](N)C1` [OSELTAMIVIR], the IC50 was found to be 71.5 µg/mL (≈ 229 µM).

A further series relates to Influenza A virus. Nature of the series: Antiviral activity against Influenza A virus (A/Puerto Rico/8/1934(H1N1)) infected in MDCK cells assessed as reduction in virus-induced cytopathogenicity treated immediately after virus infection and measured after 48 hrs by SRB assay. The class given is functional, organism-based.
Conditions: not given
Consider `CCOC(=O)C1=C[C@@H](OC(CC)CC)[C@H](NC(C)=O)[C@@H](N)C1` [OSELTAMIVIR], for which the half-inhibitory concentration (IC50) was determined as 4.12 µg/mL (≈ 13.2 µM).

For another series, the system named is Influenza A virus. Briefly: Antiviral activity against Influenza A virus (A/Puerto Rico/8/1934(H1N1)) infected in MDCK cells assessed as reduction in virus-induced cytopathogenicity at 1 ug/ml pre-incubated for 1 hr with virus before virus infection of cells and measured after 48 hrs by SRB assay.
Conditions: not given
Format: functional, organism-based.
`COc1cc(CN2CCN(c3ccccc3Cl)CC2)c2cc3[n+](cc2c1O)CCc1cc2c(cc1-3)OCO2.[Cl-]`: the result was Active.

On to `CCOC(=O)C1=C[C@@H](OC(CC)CC)[C@H](NC(C)=O)[C@@H](N)C1` [OSELTAMIVIR], for which the result was Active.

For the compound `COc1cc(CN2CCN(c3ccc(C)cc3)CC2)c2cc3[n+](cc2c1O)CCc1cc2c(cc1-3)OCO2.[Cl-]`, the result was Active.

The test system of another series is Influenza A virus. Briefly: Antiviral activity against Influenza A virus (A/Puerto Rico/8/1934(H1N1)) infected in MDCK cells assessed as reduction in virus-induced cytopathogenicity treated 1 hr after virus infection and measured after 48 hrs by SRB assay. Format: functional, organism-based.
Conditions: not given
Consider `CCOC(=O)C1=C[C@@H](OC(CC)CC)[C@H](NC(C)=O)[C@@H](N)C1` [OSELTAMIVIR], for which the concentration for half-maximal inhibition (IC50) came to 6.13 µg/mL (≈ 19.6 µM).

A further series has as its system Influenza A virus. Nature of the series: Antiviral activity against Influenza A virus (A/Puerto Rico/8/1934(H1N1)) infected in MDCK cells assessed as reduction in virus-induced cytopathogenicity treated 12 hrs after virus infection and measured after 48 hrs by SRB assay. The class given is functional, organism-based.
Conditions: not given
For `CCOC(=O)C1=C[C@@H](OC(CC)CC)[C@H](NC(C)=O)[C@@H](N)C1` [OSELTAMIVIR], the IC50 worked out at 84.3 µg/mL (≈ 270 µM).

A further series relates to Influenza A virus. Nature of the series: Antiviral activity against Influenza A virus (A/Puerto Rico/8/1934(H1N1)) infected in MDCK cells assessed as reduction in virus-induced cytopathogenicity treated 2 hrs after virus infection and measured after 48 hrs by SRB assay. The class given is functional, organism-based.
Conditions: not given
For `CCOC(=O)C1=C[C@@H](OC(CC)CC)[C@H](NC(C)=O)[C@@H](N)C1` [OSELTAMIVIR], the half-inhibitory concentration (IC50) came to 6.05 µg/mL (≈ 19.4 µM).

The subject of another series is Influenza A virus. Nature of the series: Antiviral activity against Influenza A virus (A/Puerto Rico/8/1934(H1N1)) infected in MDCK cells assessed as reduction in virus-induced cytopathogenicity treated 1 hr before virus infection and measured after 48 hrs by SRB assay. The class given is functional, organism-based.
Conditions: not given
As for `CCOC(=O)C1=C[C@@H](OC(CC)CC)[C@H](NC(C)=O)[C@@H](N)C1` [OSELTAMIVIR], the concentration for half-maximal inhibition (IC50) was determined as 69.8 µg/mL (≈ 223 µM).

In another series the target is Neuraminidase (Influenza A virus (A/Puerto Rico/8/1934(H1N1)), UniProt P03468). Nature of the series: Inhibition of neuraminidase in influenza A virus (A/Puerto Rico/8/1934(H1N1)) pre-incubated for 30 mins before NA-Star substrate addition for 30 mins by luminescence based assay.
Neuraminidase (Influenza A virus (A/Puerto Rico/8/1934(H1N1)), UniProt P03468), sequence (P03468 whole entry): as above
Conditions: not given
Take `COc1cc(CN2CCN(c3ccccc3Cl)CC2)c2cc3[n+](cc2c1O)CCc1cc2c(cc1-3)OCO2.[Cl-]`: the Ki turned out to be 2650 nM.

The compound `COc1cc(CN2CCN(c3ccc(C)cc3)CC2)c2cc3[n+](cc2c1O)CCc1cc2c(cc1-3)OCO2.[Cl-]` yielded a Ki of 290 nM.

The test system of a further series is Influenza A virus. Briefly: Antiviral activity against Influenza A virus (A/Puerto Rico/8/1934(H1N1)) infected in MDCK cells assessed as reduction in virus-induced cytopathogenicity treated 6 hrs before virus infection and measured after 48 hrs by SRB assay. The class given is functional, organism-based.
Conditions: not given
For `CCOC(=O)C1=C[C@@H](OC(CC)CC)[C@H](NC(C)=O)[C@@H](N)C1` [OSELTAMIVIR], the IC50 was > 100 µg/mL.

The next series has as its target Neuraminidase (Influenza A virus (A/Puerto Rico/8/1934(H1N1))) (UniProt P03468). Briefly: Inhibition of neuraminidase in influenza A virus (A/Puerto Rico/8/1934(H1N1)) assessed as remaining enzyme activity at 1 ug/ml pre-incubated for 30 mins before NA-Star substrate addition for 30 mins by luminescence based assay.
Conditions: not given
As for `CCOC(=O)C1=C[C@@H](OC(CC)CC)[C@H](NC(C)=O)[C@@H](N)C1` [OSELTAMIVIR], the Activity is 32.9%.

The subject of the next series is Influenza A virus. Briefly: Antiviral activity against Influenza A virus (A/Puerto Rico/8/1934(H1N1)) infected in MDCK cells assessed as reduction in virus-induced cytopathogenicity at 1 ug/ml treated before virus infection and measured after 48 hrs by SRB assay relative to untreated control. Format: functional.
Conditions: not given
For `COc1cc(CN2CCN(c3ccccc3Cl)CC2)c2cc3[n+](cc2c1O)CCc1cc2c(cc1-3)OCO2.[Cl-]`, the inhibition at 1 µg/mL came to 22.1%.

As for `CCOC(=O)C1=C[C@@H](OC(CC)CC)[C@H](NC(C)=O)[C@@H](N)C1` [OSELTAMIVIR], the inhibition at 1 µg/mL worked out at 25.7%.

In the case of `COc1cc(CN2CCN(c3ccc(C)cc3)CC2)c2cc3[n+](cc2c1O)CCc1cc2c(cc1-3)OCO2.[Cl-]`, the inhibition at 1 µg/mL came out at 25.3%.

A further series has as its system Influenza A virus. Briefly: Antiviral activity against Influenza A virus (A/Puerto Rico/8/1934(H1N1)) infected in MDCK cells assessed as reduction in virus-induced cytopathogenicity treated 24 hrs after virus infection and measured after 48 hrs by SRB assay. The class given is functional, organism-based.
Conditions: not given
Take `CCOC(=O)C1=C[C@@H](OC(CC)CC)[C@H](NC(C)=O)[C@@H](N)C1` [OSELTAMIVIR]: the half-maximal inhibitory concentration (IC50) is > 100 µg/mL.

For a further series, the system named is Influenza B virus. Briefly: Antiviral activity against Influenza B virus (B/Lee/40) infected in MDCK cells assessed as reduction in virus-induced cytopathogenicity incubated for 48 hrs by SRB assay. The class given is functional, organism-based. The settings on record: B/Lee/1940, MDCK.
For `COc1cc(CN2CCN(c3ccccc3Cl)CC2)c2cc3[n+](cc2c1O)CCc1cc2c(cc1-3)OCO2.[Cl-]`, the 50% inhibitory concentration (IC50) was found to be 6.33 µg/mL.

As for `CCOC(=O)C1=C[C@@H](OC(CC)CC)[C@H](NC(C)=O)[C@@H](N)C1` [OSELTAMIVIR], the IC50 was determined as 41.9 µg/mL (≈ 134 µM).

Turning to `COc1cc(CN2CCN(c3ccc(C)cc3)CC2)c2cc3[n+](cc2c1O)CCc1cc2c(cc1-3)OCO2.[Cl-]`, the concentration for half-maximal inhibition (IC50) turned out to be 6.17 µg/mL.

The next series addresses Neuraminidase (Influenza A virus (A/Puerto Rico/8/1934(H1N1))) (UniProt P03468). Nature of the series: Inhibition of neuraminidase in influenza A virus (A/Puerto Rico/8/1934(H1N1)) assessed as remaining enzyme activity at 10 ug/ml pre-incubated for 30 mins before NA-Star substrate addition for 30 mins by luminescence based assay.
Conditions: not given
For `CCOC(=O)C1=C[C@@H](OC(CC)CC)[C@H](NC(C)=O)[C@@H](N)C1` [OSELTAMIVIR], the Activity is 22.6%.

For a further series the target is unchanged. Nature of the series: Inhibition of neuraminidase in influenza A virus (A/Puerto Rico/8/1934(H1N1)) assessed as remaining enzyme activity at 0.1 ug/ml pre-incubated for 30 mins before NA-Star substrate addition for 30 mins by luminescence based assay.
Conditions: not given
Consider `CCOC(=O)C1=C[C@@H](OC(CC)CC)[C@H](NC(C)=O)[C@@H](N)C1` [OSELTAMIVIR], for which the Activity is 41.9%.

The test system of a further series is Influenza B virus. Briefly: Antiviral activity against Influenza B virus (B/Maryland/1/59) infected in MDCK cells assessed as reduction in virus-induced cytopathogenicity incubated for 48 hrs by SRB assay. Format: functional, organism-based.
Conditions: not given
Turning to `COc1cc(CN2CCN(c3ccccc3Cl)CC2)c2cc3[n+](cc2c1O)CCc1cc2c(cc1-3)OCO2.[Cl-]`, the half-inhibitory concentration (IC50) was 4.17 µg/mL.

For the compound `CCOC(=O)C1=C[C@@H](OC(CC)CC)[C@H](NC(C)=O)[C@@H](N)C1` [OSELTAMIVIR], the IC50 is 33.2 µg/mL (≈ 106 µM).

On to `COc1cc(CN2CCN(c3ccc(C)cc3)CC2)c2cc3[n+](cc2c1O)CCc1cc2c(cc1-3)OCO2.[Cl-]`, for which the IC50 was found to be 5.1 µg/mL.

The next series has as its system Influenza A virus. Nature of the series: Antiviral activity against Influenza A virus (A/Puerto Rico/8/1934(H1N1)) infected in MDCK cells assessed as reduction in virus-induced cytopathogenicity treated 4 hrs after virus infection and measured after 48 hrs by SRB assay. Format: functional, organism-based.
Conditions: not given
For `CCOC(=O)C1=C[C@@H](OC(CC)CC)[C@H](NC(C)=O)[C@@H](N)C1` [OSELTAMIVIR], the IC50 is 7.39 µg/mL (≈ 23.7 µM).
